According to US10941157B2, “Pesticidal compositions and uses thereof” (Gilead Apollo, LLC, priority 2015, dated 2021):
Values after ≈ are worked out from the molar mass of the structure shown. Read-outs that look alike come from different tables or passages of the source.

What was measured:
Pythium ultimum = assay: Seed protectant for soybean seedling disease, P. ultimum; format: in vivo; conditions: soybean from treated seeds, 0.025 mg/seed, P. ultimum inoculated
Method: (§1) The pathogen of Rhizoctonia solani inoculum was grown on sterile sorghum; and the pathogen of Pythium ultimum inoculum was grown on white millet.
(§2) Soybean seeds (Glycine max cv. AG4832) were planted in 2.5-inch square pots containing Berger BM2 germination mix amended with fertilizer (e.g., 14-14-14). Pots with soil were inoculated with the pathogen of R. solani or P. ultimum at time of planting. A hole was pressed into the soil to a depth of about 2 to 3 cm; the inoculum was added to the hole, followed by the seed which was then covered with soil. Two seeds per pot were planted. Plants were grown in a growth chamber at conditions of 20 to 24° C., 14 hour light cycle, 500 uM of light, and 65% humidity. The pots inoculated with P. ultimum were sub-irrigated every day; and the pots inoculated with R. solani were sub-irrigated every other day.
(§3) Seedling emergence was captured at 7 and 14 days after seeding. At 14 days, the top of the plant was removed and fresh weight was recorded. The plant weights from the seeds treated with test compounds (e.g., in formulations) were compared to the ones either from the inoculated non-treated seeds or non-inoculated non-treated seeds. Table 10 lists the results of the R. solani control in soybean upon seed treatment with test compounds, and Table 11 lists the results of the P. ultimum control in soybean upon seed treatment with test compounds, respectively.

Septoria tritici (St) = assay: In vitro pathogen growth inhibition assay, St; format: cell-based
Method in brief: (§4)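 Value reported is the compound concentration reaching ≥90% growth inhibition, from OD readings at 24 and 48 h after blank subtraction, confirmed visually. Inoculum was spores diluted in 17% V8 medium, except Rs, using 1.5 mm mycelial plugs in ¼ PDB; actual compound concentration corrected via OD600.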

[1] = system: Fusarium moniliforme (Fm); assay: In vitro pathogen growth inhibition assay, Fm; format: cell-based; conditions: Fusarium verticillioides
Method in brief: as §4

[2] = system: Mycosphaerella graminicola (synthetic Septoria tritici); assay: Foliar protection test for wheat septoria leaf blotch control; format: in vivo; conditions: foliar spray on Triticum aestivum cv. WinterHawk, inoculated 1 hour after treatment, evaluated 16 days later
Sphaerotheca fuliginea = assay: Foliar protection for cucumber powdery mildew control; format: in vivo; conditions: foliar spray on Cucumis sativus cv. Straight Eight, inoculated 24 hours after treatment, evaluated 7 days later
Method in brief: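 Protective foliar spray on 10-day-old Straight Eight cucumbers, with S. fuliginea spores dusted from infected stock plants 24 h after treatment. Disease developed at 23–27 °C, 60% RH and a 16 h photoperiod. Leaves were rated for mildew growth after 7 days; test rates 10 ppm or below.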

Phakopsora pachyrhizi = assay: Foliar protection test for Asian soybean rust control; format: in vivo; conditions: foliar application to soybean (Glycine max AG4832), percent disease area evaluated 14 days later
Rhizoctonia solani = assay: Seed protectant for soybean seedling disease, R. solani; format: in vivo; conditions: soybean from treated seeds, 0.025 mg/seed, R. solani inoculated
Method: as §1, §2, §3

[3] = system: Blumeria graminis f. sp. hordei; assay: Foliar protection test for barley powdery mildew control; format: in vivo; conditions: foliar spray on Hordeum vulgare cv. Perry, inoculated 24 hours after treatment, evaluated 7 days later
Method in brief: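 Protective foliar test: compound atomized onto both leaf surfaces of 6-day-old Hordeum vulgare cv. Perry, followed after 24 h by spore-cloud inoculation from colonized untreated plants. Disease rated on leaves 7 days on, plants held at 20 to 22° C and 70% RH.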

[4] = system: Blumeria graminis f. sp. hordei; assay: Early foliar disease control via seed treatment (barley powdery mildew); format: in vivo; conditions: seed treatment rate 0.025 mg/seed; barley inoculated 7 days after planting, evaluated 7 days later
Method: Barley seeds (Hordeum vulgare cv. Perry or Conlon) were treated with a test compound dissolved in pure acetone, in which the acetone solution (1 mL) was used per 50 seeds in glass jars in a fume hood. The seeds were swirled in the glass jars by hand until no obvious presence of acetone remained and the seeds were mostly dry. Plants were grown for 7 days in 2-inch square pots containing Metromix 200 medium amended with fertilizer. […] After inoculation with the pathogen of Blumeria graminis f. sp. hordei, plants were kept at conditions of 20 to 22° C., 200 uM of light, 70% humidity to facilitate infection and disease development. At 7 days after planting (1st true leaf fully expanded), the plants were moved to the cooler chamber and inoculated by shaking well-colonized, untreated stock plants above the treated material. […] Efficacy was evaluated in 7 days later by examining leaves for colonization and growth of powdery mildew. Each side of each leaf was assigned a severity rating of 0, 1, 5, 10, 25, 50, 75, or 100 percent diseased area. Table 14 lists the results of barley powdery mildew control upon seed treatment with test compounds.

Rhizoctonia solani (Rs) = assay: In vitro pathogen growth inhibition assay, Rs (mycelial plugs); format: cell-based; conditions: Rhizoctonia solani, 48 h, mycelial plugs
Method in brief: (§5)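 Spores in 17% V8 liquid medium, or 1.5 mm Rs mycelial plugs in ¼ PDB, incubated with compound; final concentration checked by OD600 for precipitation. OD readings at 24 and 48 h, blank-subtracted, plus visual ratings; value is concentration giving ≥90% growth inhibition.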

Fusarium graminearum [5] = format: in vivo; conditions: spray on flowering Triticum aestivum cv. Samson, inoculated 24 hours after treatment, evaluated 14 days later
Puccinia triticina = assay: Foliar protection test for wheat leaf rust control; format: in vivo; conditions: foliar application to wheat (Triticum aestivum cv. Winterhawk), evaluated 10 days later
[6] = system: Fusarium virguliforme (Fv); assay: In vitro pathogen growth inhibition assay, Fv; format: cell-based
Method in brief: as §5

Fusarium graminearum [7] = format: in vivo; conditions: corn from treated seeds, 0.025 mg/seed, F. graminearum inoculated, Table 12
[8] = system: Collectotrichum graminicola (Cg); assay: In vitro pathogen growth inhibition assay, Cg; format: cell-based; conditions: 48 h, ≥90% inhibition; 48 hours vs 2% DMSO control; read-out: Compound Concentration (ppm) sufficient for ≥90% inhibition of growth, Cg
Method in brief: as §4

[9] = system: Phytophthora capsici (Pc); assay: In vitro pathogen growth inhibition assay, Pc; format: cell-based; conditions: 48 h, ≥90% inhibition, 48 hours vs 2% DMSO control, read-out: Compound Concentration (ppm) sufficient for ≥90% inhibition of growth, Pc
Method in brief: as §5

Botrtyis cinerea (Bc) = assay: In vitro pathogen growth inhibition assay, Bc; format: cell-based; conditions: 48 h, ≥90% inhibition; 48 hours vs 2% DMSO control; read-out: Compound Concentration (ppm) sufficient for ≥90% inhibition of growth, Bc
Method in brief: as §4

Diplodia maydis (Dm) = assay: In vitro pathogen growth inhibition assay, Dm; format: cell-based; conditions: Stenocarpella maydis, 48 h, ≥90% inhibition; 48 hours vs 2% DMSO control; read-out: Compound Concentration (ppm) sufficient for ≥90% inhibition of growth, Dm
Method in brief: as §5

[10] = percentage of non-inoculated non-treated controls

SMILES | Septoria Leaf Blotch Control at a compound concentration of 25 ppm or lower [2] | Cucumber Powdery Mildew Control at a compound concentration of 10 ppm or lower (Sphaerotheca fuliginea) | Asian Soybean Rust Control at a compound concentration of 25 ppm or lower (Phakopsora pachyrhizi) | Barley Powdery Mildew Control at a compound concentration of 10 ppm or lower [3] | Barley Powdery Mildew Reduction (%) [4] [%] | Wheat Fusarium Head Blight Control at a compound concentration of 25 ppm or lower (Fusarium graminearum [5]) | Wheat Leaf Rust Control at a compound concentration of 10 ppm or lower (Puccinia triticina) | Plant Height (Fusarium graminearum [7]) [cm] | other results
CCOC(=O)c1sc2c(c1C)c(=O)n(C(C)(C)C(=O)NC(C)C)c(=O)n2C[C@H](OCCC#N)c1cc(F)ccc1OC [Compound I-181, (R)-ethyl-1-(2-(2-cyanoethoxy)-2-(5-fluoro-2-methoxyphenyl)ethyl)-3-(1-(isopropylamino)-2-methyl-1-oxopropan-2-yl)-5-methyl-2,4-dioxo-1,2,3,4-tetrahydrothieno[2,3-d]pyrimidine-6-carboxylate] | B (from 50 to 69% control of wheat septoria leaf blotch) | AA (≥85% control of cucumber powdery mildew) | B (from 50 to 69% control of Asian soybean rust) | AA (≥85% control of barley powdery mildew) | 57 | B (from 50 to 69% control of wheat fusarium head blight) | AA (≥85% control of wheat leaf rust) | 47.63 | Plant Weight (Pythium ultimum; fresh weight at 14 days): 4.73 g; Improvement in plant weight (Pythium ultimum; [10]): 76%; Compound Concentration (ppm) sufficient for ≥90% inhibition of St (Septoria tritici (St); ≥90% growth inhibition, 48 hours, vs 2% DMSO control): ≥10.0 ppm; IC90 ([1]; ≥90% growth inhibition, 48 hours, vs 2% DMSO control, read-out: Compound Concentration (ppm) sufficient for ≥90% inhibition of Fm): 0.08 µg/mL (≈ 0.133 µM); Plant Weight (Rhizoctonia solani; fresh weight at 14 days): 3.16 g; Improvement in plant weight (Rhizoctonia solani; [10]): 39.4%; IC90 (Rhizoctonia solani (Rs); ≥90% growth inhibition, 48 hours, vs 2% DMSO control, read-out: Compound Concentration (ppm) sufficient for ≥90% inhibition of Rs): 0.08 µg/mL (≈ 0.133 µM); IC90 ([6]; ≥90% growth inhibition, 48 hours, vs 2% DMSO control, read-out: Compound Concentration (ppm) sufficient for ≥90% inhibition of Fv): 0.4 µg/mL (≈ 0.664 µM)
COc1ccc(F)cc1[C@H](Cn1c(=O)n(C(C)(C)C(=O)NC(C)C)c(=O)c2c(C)c(-n3nccn3)sc21)OC(C)C [Compound I-020, (R)-2-(1-(2-(5-fluoro-2-methoxyphenyl)-2-isopropoxyethyl)-5-methyl-2,4-dioxo-6-(2H-1,2,3-triazol-2-yl)-1,4-dihydrothieno[2,3-d]pyrimidin-3 (2H)-yl)-N-isopropyl-2-methylpropanamide] | B (from 50 to 69% control of wheat septoria leaf blotch) | AA (≥85% control of cucumber powdery mildew) | B (from 50 to 69% control of Asian soybean rust) | AA (≥85% control of barley powdery mildew) | 91 | B (from 50 to 69% control of wheat fusarium head blight) | B (from 50 to 69% control of wheat leaf rust) | 40.53 | IC90 (Septoria tritici (St); Zymoseptoria tritici, 48 h, ≥90% inhibition, 48 hours vs 2% DMSO control, read-out: Compound Concentration (ppm) sufficient for ≥90% inhibition of growth, St): ≥ 2 µg/mL; IC90 ([1]; ≥90% inhibition, 48 hours vs 2% DMSO control, read-out: Compound Concentration (ppm) sufficient for ≥90% inhibition of growth, Fm): 0.08 µg/mL (≈ 0.136 µM); IC90 [8]: 0.08 µg/mL (≈ 0.136 µM); IC90 [9]: > 50 µg/mL; IC90 (Rhizoctonia solani (Rs); ≥90% inhibition, 48 hours vs 2% DMSO control, read-out: Compound Concentration (ppm) sufficient for ≥90% inhibition of growth, Rs): 0.08 µg/mL (≈ 0.136 µM); IC90 (Botrtyis cinerea (Bc)): ≥ 0.08 µg/mL; IC90 ([6]; ≥90% inhibition, 48 hours vs 2% DMSO control, read-out: Compound Concentration (ppm) sufficient for ≥90% inhibition of growth, Fv): 0.4 µg/mL (≈ 0.682 µM); IC90 (Diplodia maydis (Dm)): 0.08 µg/mL (≈ 0.136 µM)
